biological target: T1, human LPA1 (Homo sapiens, UniProt Q92633); assay: LPA1 calcium flux assay; type: cell-based; details: CHO cells expressing human LPA1, stimulated with 10 nM LPA; read-out: HLPA1 Ca Flux IC50
T1 construct: the full-length cDNA for human LPA1 was obtained by PCR of the reverse transcription reaction; expressed in transfected cells
Experimental: A 1.1 kb cDNA encoding the human LPA1 receptor was cloned from human lung. Human lung RNA (Clontech Laboratories, Inc. USA) was reverse transcribed using the RETROscript kit (Ambion, Inc.) and the full-length cDNA for human LPA1 was obtained by PCR of the reverse transcription reaction. The nucleotide sequence of the cloned human LPA1 was determined by sequencing and confirmed to be identical to the published human LPA1 sequence (An et al. Biochenm. Biophys. Res. Commun. 231:619 (1997). The cDNA was cloned into the pCDNA5/FRT expression plasmid and transfected in CHO cells using lipofectamine 2000 (Invitrogen Corp., USA). Clones stably expressing human LPA1 were selected using hygromycin and identified as cells that show Ca-influx in response to LPA.
Human LPA1 or LPA3 expressing CHO cells are seeded at 20,000-45,000 cells per well in a 96-well poly-D-lysine coated plate one or two days before the assay. Prior to the assay, the cells are washed once with PBS and then cultured in serum-free media overnight. On the day of the assay, a calcium indicator dye (Calcium 4, Molecular Devices) in assay buffer (HBSS with Ca^2+ and Mg^2+ and containing 20 mM Hepes and 0.3% fatty-acid free human serum albumin) is added to each well and incubation continued for 1 hour at 37° C. 10 μl of test compounds in 2.5% DMSO are added to the cells and incubation continued at room temperature for 30 minutes. Cells are the stimulated by the addition of 10 nM LPA and intracellular Ca^2+ measured using the Flexstation 3 (Molecular Devices). IC50s are determined using Graphpad prism analysis of drug titration curves.

T1 sequence (Q92633 whole entry): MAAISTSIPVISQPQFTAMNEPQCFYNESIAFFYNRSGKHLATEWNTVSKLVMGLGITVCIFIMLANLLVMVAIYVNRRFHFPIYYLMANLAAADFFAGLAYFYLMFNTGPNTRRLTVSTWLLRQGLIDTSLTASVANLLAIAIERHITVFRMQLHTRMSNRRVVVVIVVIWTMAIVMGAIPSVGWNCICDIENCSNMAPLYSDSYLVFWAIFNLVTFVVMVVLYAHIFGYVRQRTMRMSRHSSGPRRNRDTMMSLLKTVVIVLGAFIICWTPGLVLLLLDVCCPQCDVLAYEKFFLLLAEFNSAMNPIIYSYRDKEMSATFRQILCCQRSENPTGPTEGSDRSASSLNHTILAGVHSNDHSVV

Compound | IC50 [nM]
Cc1noc(-c2ccc(-c3ccc(C4(C(=O)O)CC4)cc3)cc2)c1CCC(=O)N(C)C(C)c1ccccc1 (stereo in doubt) [Compound 1-117, 1-[4′-(3-Methyl-4-{2-[methyl-((R)-1-phenyl-ethyl)-carbamoyl]-ethyl}-isoxazol-5-yl)-biphenyl-4-yl]-cyclopropanecarboxylic acid] | 1000 to 50000
Cc1noc(-c2ccc(-c3cccc(C(=O)O)c3)cc2)c1NC(=O)CCc1ccccc1 [Compound 1-1, 4′-[3-Methyl-4-(3-phenyl-propionylamino)-isoxazol-5-yl]-biphenyl-3-carboxylic acid] | 1000 to 50000
Cc1noc(-c2ccc(-c3cccc(C(=O)O)c3)cc2)c1NC(=O)NCc1ccccc1 [Compound 1-2, 4′-[4-(3-Benzyl-ureido)-3-methyl-isoxazol-5-yl]-biphenyl-3-carboxylic acid] | 1000 to 50000
Cc1noc(-c2ccc(-c3ccc(C4(C(=O)O)CC4)cc3)cc2)c1NC(=O)CC(C)C [Compound 1-3, 1-{4′-[3-Methyl-4-(3-methyl-butyrylamino)-isoxazol-5-yl]-biphenyl-4-yl}-cyclopropanecarboxylic acid] | 1000 to 50000
Cc1noc(-c2ccc(-c3ccc(C4(C(=O)O)CC4)cc3)cc2)c1NC(=O)COc1ccccc1 [Compound 1-5, 1-{4′-[3-Methyl-4-(2-phenoxy-acetylamino)-isoxazol-5-yl]-biphenyl-4-yl}-cyclopropanecarboxylic acid] | 1000 to 50000
Cc1noc(-c2ccc(-c3ccc(C4(C(=O)O)CC4)cc3)cc2)c1NC(=O)NC(C)(C)C [Compound 1-7, 1-{4′-[4-(3-tert-Butyl-ureido)-3-methyl-isoxazol-5-yl]-biphenyl-4-yl}-cyclopropanecarboxylic acid] | < 300
Cc1noc(-c2ccc(-c3ccc(C4(C(=O)O)CC4)cc3)cc2)c1NC(=O)N(C)C(C)C [Compound 1-8, 1-{4′-[4-(3-Isopropyl-3-methyl-ureido)-3-methyl-isoxazol-5-yl]-biphenyl-4-yl}-cyclopropanecarboxylic acid] | 1000 to 50000
Cc1noc(-c2ccc(-c3ccc(C4(C(=O)O)CC4)cc3)cc2)c1NC(=O)NCC(F)(F)F [Compound 1-13, 1-(4′-{3-Methyl-4-[3-(2,2,2-trifluoro-ethyl)-ureido]-isoxazol-5-yl}-biphenyl-4-yl)-cyclopropanecarboxylic acid] | > 50000
Cc1noc(-c2ccc(-c3ccc(C4(C(=O)O)CC4)cc3)cc2)c1COC(=O)N[C@H](C)c1ccccc1 [Compound 1-19, 1-{4′-[3-Methyl-4-((R)-1-phenyl-ethylcarbamoyloxymethyl)-isoxazol-5-yl]-biphenyl-4-yl}-cyclopropanecarboxylic acid] | < 300
Cc1noc(-c2ccc(-c3ccc(C4(C(=O)O)CC4)cc3)cc2)c1COC(=O)NCc1ccccc1 [Compound 1-21, 1-[4′-(4-Benzylcarbamoyloxymethyl-3-methyl-isoxazol-5-yl)-biphenyl-4-yl]-cyclopropanecarboxylic acid] | < 300
Cc1noc(-c2ccc(-c3ccc(C4(C(=O)O)CC4)cc3)cc2)c1COC(=O)N[C@@H](C)c1ccccc1 [Compound 1-22, 1-{4′-[3-Methyl-4-((S)-1-phenyl-ethylcarbamoyloxymethyl)-isoxazol-5-yl]-biphenyl-4-yl}-cyclopropanecarboxylic acid] | 1000 to 50000
Cc1noc(-c2ccc(-c3ccc(C4(C(=O)O)CC4)cc3)cc2)c1COC(=O)NC1CCCC1 [Compound 1-23, 1-[4′-(4-Cyclopentylcarbamoyloxymethyl-3-methyl-isoxazol-5-yl)-biphenyl-4-yl]-cyclopropanecarboxylic acid] | < 300

Other lines, results leading:

IC50 [nM] | Compound
< 300 | Cc1noc(-c2ccc(-c3ccc(C4(C(=O)O)CC4)cc3)cc2)c1NC(C)C(O)Cc1ccccc1 (single isomer, unassigned) [Compound 1-283, 1-{4′-[4-(2-Hydroxy-1-methyl-3-phenyl-propylamino)-3-methyl-isoxazol-5-yl]-biphenyl-4-yl}-cyclopropanecarboxylic acid]
1000 to 50000 | Cc1noc(-c2ccc(-c3ccc(C4(C(=O)O)CC4)cc3)cc2)c1NC(=O)CCc1ccccc1 [Compound 1-4, 1-{4′-[3-Methyl-4-(3-phenyl-propionylamino)-isoxazol-5-yl]-biphenyl-4-yl}-cyclopropanecarboxylic acid]
< 300 | Cc1noc(-c2ccc(-c3ccc(C4(C(=O)O)CC4)cc3)cc2)c1NC(=O)NCc1ccccc1 [Compound 1-6, 1-{4′-[4-(3-Benzyl-ureido)-3-methyl-isoxazol-5-yl]-biphenyl-4-yl}-cyclopropanecarboxylic acid]
1000 to 50000 | Cc1noc(-c2ccc(-c3ccc(C4(C(=O)O)CC4)cc3)cc2)c1NC(=O)N(C)[C@H](C)c1ccccc1 [Compound 1-9, 1-(4′-{3-Methyl-4-[3-methyl-3-((R)-1-phenyl-ethyl)-ureido]-isoxazol-5-yl}-biphenyl-4-yl)-cyclopropanecarboxylic acid]
< 300 | Cc1noc(-c2ccc(-c3ccc(C4(C(=O)O)CC4)cc3)cc2)c1NC(=O)N[C@H](C)c1ccccc1 [Compound 1-11, 1-(4′-{3-Methyl-4-[3-((R)-1-phenyl-ethyl)-ureido]-isoxazol-5-yl}-biphenyl-4-yl)-cyclopropanecarboxylic acid]
< 300 | Cc1noc(-c2ccc(-c3ccc(C4(C(=O)O)CC4)cc3)cc2)c1NC(=O)NCc1ccccc1F [Compound 1-12, 1-(4′-{4-[3-(2-Fluoro-benzyl)-ureido]-3-methyl-isoxazol-5-yl}-biphenyl-4-yl)-cyclopropanecarboxylic acid]
300 to 1000 | Cc1noc(-c2ccc(-c3ccc(C4(C(=O)O)CC4)cc3)cc2)c1NS(=O)(=O)Cc1ccccc1Cl [Compound 1-14, 1-{4′-[4-(2-Chloro-phenylmethanesulfonylamino)-3-methyl-isoxazol-5-yl]-biphenyl-4-yl}-cyclopropanecarboxylic acid]
1000 to 50000 | Cc1noc(-c2ccc(-c3ccc(C4(C(=O)O)CC4)cc3)cc2)c1NC(=O)NCc1cc(C(F)(F)F)ccc1F [Compound 1-15, 1-(4′-{4-[3-(2-Fluoro-5-trifluoromethyl-benzyl)-ureido]-3-methyl-isoxazol-5-yl}-biphenyl-4-yl)-cyclopropanecarboxylic acid]
300 to 1000 | Cc1noc(-c2ccc(-c3ccc(C4(C(=O)O)CC4)cc3)cc2)c1NC(=O)NCc1c(F)cccc1F [Compound 1-16, 1-(4′-{4-[3-(2,6-Difluoro-benzyl)-ureido]-3-methyl-isoxazol-5-yl}-biphenyl-4-yl)-cyclopropanecarboxylic acid]
1000 to 50000 | Cc1noc(-c2ccc(-c3ccc(C4(C(=O)O)CC4)cc3)cc2)c1NC(=O)C(C)Oc1ccccc1 (centres unmarked) [Compound 1-17, 1-{4′-[3-Methyl-4-(2-phenoxy-propionylamino)-isoxazol-5-yl]-biphenyl-4-yl}-cyclopropanecarboxylic acid]
1000 to 50000 | Cc1noc(-c2ccc(-c3ccc(C4(C(=O)O)CC4)cc3)cc2)c1NC(=O)NS(=O)(=O)c1ccccc1 [Compound 1-18, 1-{4′-[4-(3-Benzenesulfonyl-ureido)-3-methyl-isoxazol-5-yl]-biphenyl-4-yl}-cyclopropanecarboxylic acid]
1000 to 50000 | Cc1noc(-c2ccc(-c3ccc(C4(C(=O)O)CC4)cc3)cc2)c1CNCC1CC1 [Compound 1-27, 1-(4′-{4-[(Cyclopropylmethyl-amino)-methyl]-3-methyl-isoxazol-5-yl}-biphenyl-4-yl)-cyclopropanecarboxylic acid]
> 50000 | Cc1noc(-c2ccc(-c3ccc(C4(C(=O)O)CC4)cc3)cc2)c1CNCC1CCCCC1 [Compound 1-28, 1-(4′-{4-[(Cyclohexylmethyl-amino)-methyl]-3-methyl-isoxazol-5-yl}-biphenyl-4-yl)-cyclopropanecarboxylic acid]
1000 to 50000 | Cc1noc(-c2ccc(-c3ccc(C4(C(=O)O)CC4)cc3)cc2)c1CNCc1ccccc1 [Compound 1-29, 1-{4′-[4-(Benzylamino-methyl)-3-methyl-isoxazol-5-yl]-biphenyl-4-yl}-cyclopropanecarboxylic acid]
< 300 | CC(=O)N(CCc1ccccc1)Cc1c(C)noc1-c1ccc(-c2ccc(C3(C(=O)O)CC3)cc2)cc1 [Compound 1-30, 1-(4′-{4-[(Acetyl-phenethyl-amino)-methyl]-3-methyl-isoxazol-5-yl}-biphenyl-4-yl)-cyclopropanecarboxylic acid]
< 300 | Cc1noc(-c2ccc(-c3ccc(C4(C(=O)O)CC4)cc3)cc2)c1C=CCCc1ccccc1 [Compound 1-31, 1-{4′-[3-Methyl-4-(4-phenyl-but-1-enyl)-isoxazol-5-yl]-biphenyl-4-yl}-cyclopropanecarboxylic acid]
< 300 | Cc1noc(-c2ccc(-c3ccc(C4(C(=O)O)CC4)cc3)cc2)c1CC(=O)NC(C)c1ccccc1 (centres unmarked) [Compound 1-33, 1-(4′-{3-Methyl-4-[(1-phenyl-ethylcarbamoyl)-methyl]-isoxazol-5-yl}-biphenyl-4-yl)-cyclopropanecarboxylic acid]

Reference: US9624182B2, “Compounds as lysophosphatidic acid receptor antagonists” (Amira Pharmaceuticals, Inc., priority 2009, dated 2017)
